Laboratory results as given in US10154957B2, “Microneedle device having a peptide therapeutic agent and an amino acid and methods of making and using the same” (3M INNOVATIVE PROPERTIES COMPANY, priority 2011, dated 2018).

Assay: Percent purity of PTHrP analogue (20 mg/mL formulations) in coating on flood-coated arrays stored at 40° C./96% RH (HPLC)
Assay type: physicochemical
Conditions: peptide 20 mg/mL in PBS
Method: The protein or polypeptide content in the formulation coated on the microneedle arrays was determined using an Agilent 1100 HPLC system (Agilent Technologies, Wilmington, Del.) equipped with a binary pump, well-plated thermostated autosampler, thermostated column compartment, and a diode array UV detector. A Zorbax 300SB-C8 column (Agilent Technologies, Wilmington, Del.) having a 5 μm particle size and 2.1×150 mm inner diameter was used for the separations. The column was maintained at 50° C. The mobile phase consisted of two eluents. Eluent A was 0.1% TFA (trifluoroacetic acid) in water and eluent B was 0.1% TFA in acetonitrile (Spectrum Chemical, New Brunswick, N.J.). A linear gradient from 80/20 to 50/50 (A/B) was applied over 30 minutes. The flow rate was 0.4 mL/minute and the UV detection wavelength was set at 214 nm. The total run time was 34 minutes and the sample injection volume was 15 μL.
A sample formulation containing 20 mg/mL of [Glu^22,25,Leu^23,28,31,Aib^29,Lys^26,30]hPTHrP(1-34)NH2 and 20 mg/mL of L-histidine monohydrochloride (His-HCl) in PBS was prepared. A control formulation was also prepared containing 20 mg/mL of [Glu^22,25,Leu^23,28,31,Aib^29,Lys^26,30]hPTHrP(1-34)NH2 in PBS. […] Microneedle arrays were coated with either the sample or the control formulation. The coating was applied by dropwise addition of 50 μL of the formulation to the portion of the array defined by the octagon shaped pattern of microneedles. The flood coated arrays (both sample and control formulation coated) were dried in an oven at 35° C. for 2 hours followed by 30° C. for 15 hours.
After drying, the coated arrays were placed in a storage chamber that was maintained at 40° C. and 96% relative humidity (RH). The [Glu^22,25,Leu^23,28,31,Aib^29,Lys^26,30]hPTHrP(1-34)NH2 content of the coated arrays was determined following storage in the chamber for 1, 3, and 7 days. The initial [Glu^22,25,Leu^23,28,31,Aib^29,Lys^26,30]hPTHrP(1-34)NH2 content was also determined using freshly coated arrays (both sample and control formulation coated). The arrays used to determine initial content were stored in a refrigerator at about 4° C. and analyzed within one day of being prepared. At the designated time point, an array was taken from the chamber and washed with 0.1 N acetic acid (20 mL) to remove the formulation from the array. The resulting wash solution was analyzed for [Glu^22,25,Leu^23,28,31,Aib^29,Lys^26,30]hPTHrP(1-34)NH2 content using the HPLC method described above. The results were quantified against an external standard of [Glu^22,25,Leu^23,28,31,Aib^29,Lys^26,30]hPTHrP(1-34)NH2. At each time point, the percent purity of [Glu^22,25,Leu^23,28,31,Aib^29,Lys^26,30]hPTHrP(1-34)NH2 in the coating was determined by measuring the peak area for [Glu^22,25,Leu^23,28,31,Aib^29,Lys^26,30]hPTHrP(1-34)NH2 in the selected coating and dividing it by the total peak area measured for all [Glu^22,25,Leu^23,28,31,Aib^29,Lys^26,30]hPTHrP(1-34)NH2 related peaks.
The same procedure as described in Example 9 was used with the exception that the sample formulation contained 20 mg/mL of L-arginine hydrochloride, instead of L-histidine monohydrochloride.

Percent Purity of [Glu^22,25, Leu^23,28,31, Aib^29, Lys^26,30]hPTHrP(1-34)NH2 (Amino Acid L-Arginine (Arg-HCl 20 mg/mL), Day 1 at 40° C./96% RH): 88.4%
Percent Purity of [Glu^22,25, Leu^23,28,31, Aib^29, Lys^26,30]hPTHrP(1-34)NH2 (Amino Acid L-Arginine (Arg-HCl 20 mg/mL), Day 3 at 40° C./96% RH): 76.1%
Percent Purity of [Glu^22,25, Leu^23,28,31, Aib^29, Lys^26,30]hPTHrP(1-34)NH2 (Amino Acid L-Arginine (Arg-HCl 20 mg/mL), Day 7 at 40° C./96% RH): 46.4%
Percent Purity of [Glu^22,25, Leu^23,28,31, Aib^29, Lys^26,30]hPTHrP(1-34)NH2 (Amino Acid L-Arginine (Arg-HCl 20 mg/mL), Initial): 99.0%
Percent Purity of [Glu^22,25, Leu^23,28,31, Aib^29, Lys^26,30]hPTHrP(1-34)NH2 (Amino Acid L-Histidine (His-HCl 20 mg/mL), Day 1 at 40° C./96% RH): 99.3%
Percent Purity of [Glu^22,25, Leu^23,28,31, Aib^29, Lys^26,30]hPTHrP(1-34)NH2 (Amino Acid L-Histidine (His-HCl 20 mg/mL), Day 3 at 40° C./96% RH): 98.9%
Percent Purity of [Glu^22,25, Leu^23,28,31, Aib^29, Lys^26,30]hPTHrP(1-34)NH2 (Amino Acid L-Histidine (His-HCl 20 mg/mL), Day 7 at 40° C./96% RH): 97.9%
Percent Purity of [Glu^22,25, Leu^23,28,31, Aib^29, Lys^26,30]hPTHrP(1-34)NH2 (Amino Acid L-Histidine (His-HCl 20 mg/mL), Initial): 99.4%
Percent Purity of [Glu^22,25, Leu^23,28,31, Aib^29, Lys^26,30]hPTHrP(1-34)NH2 (Amino Acid None (control), Day 1 at 40° C./96% RH): 85.6%
Percent Purity of [Glu^22,25, Leu^23,28,31, Aib^29, Lys^26,30]hPTHrP(1-34)NH2 (Amino Acid None (control), Day 3 at 40° C./96% RH): 53.1%
Percent Purity of [Glu^22,25, Leu^23,28,31, Aib^29, Lys^26,30]hPTHrP(1-34)NH2 (Amino Acid None (control), Day 7 at 40° C./96% RH): 21.1%
Percent Purity of [Glu^22,25, Leu^23,28,31, Aib^29, Lys^26,30]hPTHrP(1-34)NH2 (Amino Acid None (control), Initial): 98.9%
Substance: [Glu^22,25,Leu^23,28,31,Aib^29,Lys^26,30]hPTHrP(1-34)NH2
